# Read-outs that look alike come from different tables or passages of the source.
# What was measured:
# [1] = target: T1, HCV NS5B polymerase (His-tagged, C-terminal 21 amino acid deleted NS5B, HC-J4) (Hepatitis C virus genotype 1b, UniProt O92972); test: NS5b polymerase assay (biochemical RdRp assay, 3H-GTP incorporation, SPA beads); parameters: species or system HCV genotype 1b
# T1 construct: The cDNA encoding NS5B amino acid 1-570 (HC-J4, genotype 1b); His tag (His6, from pET-21b) (C); made in house; host or cells: E. coli BL21 (DE3)
# How it was run: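 His-tagged C-terminal-21-aa-deleted NS5B (genotype 1b, HC-J4) at 200 nM was preincubated 15 min at RT with compound on 5′-biotinylated oligo(rG13)/poly(rC) template/primer before NTPs. Reaction with 600 nM GTP plus 0.1 μCi 3H-GTP and 5 mM MgCl2 in Tris pH 7.5 ran 2 h at 25 °C. Stopped with EDTA/SPA beads for incorporation counting.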
# [2] = system: HCV replicon RNA replication in Huh-7 luc/neo (Huh-Luc) cells; test: HCV replicon assay (stable replicon cell reporter assay, luciferase read-out); format: cell-based, HCV type 1b
# How it was run: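 Huh-7 cells stably carry a bicistronic HCV 1b NS3-NS5B subgenomic replicon with firefly luciferase and neo markers. Cells were plated with compound across a concentration range and incubated three days. Replication was measured as luciferase activity to give dose-response curves.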
# [3] = NS5B Polymerase Assay IC50, 200 nM enzyme, 3H-GTP incorporation, 2 h at 25° C.
# [4] = 200 nM enzyme, 3H-GTP incorporation, 2 h at 25° C., read-out: NS5B Polymerase Assay IC50
# [5] = Huh-Luc cells, three days incubation, luciferase activity, read-out: Replicon Assay EC50
# [6] = Hepatitis C virus, Huh-7, 72 h, read-out: Replicon Assay EC50, Huh-Luc cells, three days incubation, luciferase activity
# [7] = NS5B Polymerase Assay IC50 (μM)
# [8] = Hepatitis C virus, Huh-7, 72 h, read-out: Replicon Assay EC50 (μM), Huh-Luc cells, incubation of three days, luciferase activity
# T1 sequence (O92972 2417-3000, looked up, stated change not applied): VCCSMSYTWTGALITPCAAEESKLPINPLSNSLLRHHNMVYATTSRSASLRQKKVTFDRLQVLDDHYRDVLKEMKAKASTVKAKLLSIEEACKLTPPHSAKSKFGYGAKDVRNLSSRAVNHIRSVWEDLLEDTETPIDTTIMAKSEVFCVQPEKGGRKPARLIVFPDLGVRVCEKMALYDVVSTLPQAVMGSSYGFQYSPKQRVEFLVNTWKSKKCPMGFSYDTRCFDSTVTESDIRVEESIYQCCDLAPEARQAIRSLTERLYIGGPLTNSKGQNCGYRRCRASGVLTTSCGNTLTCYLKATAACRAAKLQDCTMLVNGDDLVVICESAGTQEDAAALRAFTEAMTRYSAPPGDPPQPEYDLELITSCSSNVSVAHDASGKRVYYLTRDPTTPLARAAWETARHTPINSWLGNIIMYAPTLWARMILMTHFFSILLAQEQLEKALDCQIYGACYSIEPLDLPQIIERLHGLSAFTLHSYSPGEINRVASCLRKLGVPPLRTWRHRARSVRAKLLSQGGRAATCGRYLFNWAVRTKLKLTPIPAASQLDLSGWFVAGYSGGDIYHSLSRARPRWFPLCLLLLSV
Compound,"IC50 [1, 3] [µM]","EC50 [2, 6] [µM]",also measured
"CC(=O)N1c2ccccc2NC2=C(C(=O)CC(c3ccccc3OCc3ccccc3)C2)C1c1cccc(OCc2ccccc2)c1 (single isomer, unassigned) [compound 189]",> 42.7,,"EC50 ([2]; read-out: Replicon Assay EC50, Huh-Luc cells, three days incubation, luciferase activity): 3.99 µM"
CCOc1ccccc1C1C2=C(CC(c3ccc(OC)cc3)CC2=O)Nc2ccccc2N1C(=O)C(F)(F)F (mixture of isomers) [compound 216],,,"IC50 [1, 4]: > 42.7 µM; EC50 [2, 5]: 25.3 µM"
CCCCOc1cccc2c1NC1=C(C(=O)CC(C)(C)C1)C(c1ccc(Cl)cc1Cl)N2C(C)=O (stereo not drawn) [compound 317],> 133,5.75,
CCOc1cc(C2Nc3ccccc3NC3=C2C(=O)CC(c2ccc(OC)cc2)C3)cc(Br)c1OC (stereo not drawn) [compound 406],,,"IC50 [1, 7]: > 42.7 µM; EC50 [2, 8]: 7.29 µM"
CCCCOc1ccc(C2C3=C(CC(C)(C)CC3=O)Nc3ccccc3N2C(C)=O)cc1 (stereo not drawn) [compound 127],> 42.7,11.5,
O=C1CC(c2ccco2)CC2=C1C(c1ccco1)N(C(=O)C(F)(F)F)c1ccccc1N2 (stereo not drawn) [compound 297],> 42.7,23.6,
CC1(C)CC(=O)C2=C(C1)Nc1ccccc1N(C(=O)C(F)(F)F)C2c1ccc(Cl)cc1 (stereo not drawn) [compound 56],> 42.7,25.3,
CCn1c2ccccc2c2cc(C3Nc4cc(C)c(C)cc4NC4=C3C(=O)CC(C)(C)C4)ccc21 (stereo not drawn) [compound 504],,,"IC50 [1, 7]: 39.1 µM; EC50 [2, 8]: 17.1 µM"
"CC1(C)CC(=O)C2=C(C1)Nc1cc(F)c(F)cc1NC2c1ccc(Cl)cc1Cl (stereo not drawn) [compound 466, 7,8-difluoro-11-(2,4-dichlorophenyl)-3,3-dimethyl-2,3,4,5,10,11-hexahydro-1H-dibenzo[b,e][1,4]diazepin-1-one]",,,"IC50 [1, 7]: 68.1 µM; EC50 [2, 8]: 6.81 µM"
CC(C)CC(=O)N1c2ccccc2NC2=C(C(=O)CC(C)(C)C2)C1c1ccc2c(c1)OCO2 (stereo not drawn) [compound 242],> 42.7,1.77,
O=C1CC(c2ccc(Cl)cc2)CC2=C1C(c1ccccc1Cl)Nc1ccccc1N2 (stereo not drawn) [compound 340],,,"IC50 [1, 7]: > 42.7 µM; EC50 [2, 8]: 5.09 µM"
CC1(C)CC(=O)C2=C(C1)Nc1ccccc1N(C(=O)C(F)(F)F)C2/C=C/c1ccccc1 (racemic) [compound 244],> 33.3,15.9,
CCC(=O)N1c2ccccc2NC2=C(C(=O)CC(C)(C)C2)C1c1ccc(C(F)(F)F)cc1 (stereo not drawn) [compound 55],33.3,> 32,
COc1ccc(C2C3=C(CC(C)(C)CC3=O)Nc3ccccc3N2C(=O)C(F)(F)F)c(OC)c1 (stereo not drawn) [compound 58],> 42.7,8.78,
CCOc1ccccc1C1CC(=O)C2=C(C1)Nc1ccccc1N(C(=O)CC)C2c1ccc(OC)cc1 (stereo not drawn) [compound 219],,,"IC50 [1, 4]: > 42.7 µM; EC50 [2, 5]: 2.26 µM"
CCOc1cc(C2C3=C(CC(C)(C)CC3=O)Nc3ccccc3N2C(=O)c2ccccc2)ccc1O (stereo not drawn) [compound 64],> 42.7,22.9,
CC1(C)CC(=O)C2=C(C1)Nc1ccccc1NC2c1ccccc1OCc1ccccc1 (stereo not drawn) [compound 425],,,"IC50 [1, 7]: > 42.7 µM; EC50 [2, 8]: 13.2 µM"
CCCCCOc1ccc(C2C3=C(CC(C)(C)CC3=O)Nc3ccccc3N2C(=O)c2ccccc2F)cc1 (stereo not drawn) [compound 67],> 42.7,5.67,
CCCCC(=O)N1c2ccccc2NC2=C(C(=O)CC(C)(C)C2)C1c1cccs1 (stereo not drawn) [compound 263],> 42.7,10.4,
Cc1ccc(C2C3=C(CC(c4ccccc4F)CC3=O)Nc3ccccc3N2C(=O)c2ccccc2)cc1 (stereo not drawn) [compound 166],,,"IC50 [1, 4]: > 42.7 µM; EC50 [2, 5]: 3.98 µM"
COc1ccc(C2CC(=O)C3=C(C2)Nc2ccccc2N(C(=O)C(F)(F)F)C3c2ccc(C)cc2)cc1 (mixture of isomers) [compound 196],,,"IC50 [1, 4]: > 33.3 µM; EC50 [2, 5]: 7.32 µM"
CC(=O)N1c2ccccc2NC2=C(C(=O)CC(C)(C)C2)C1c1cccc(Oc2ccccc2)c1 (stereo not drawn) [compound 135],54.7,2.47,
COc1c(Cl)cc(Cl)cc1C1C2=C(CC(C)(C)CC2=O)Nc2ccccc2N1C(=O)C(F)(F)F (stereo not drawn) [compound 116],> 42.7,> 32,
CCCCOc1ccccc1C1Nc2ccccc2NC2=C1C(=O)CC(c1ccccc1)C2 (stereo not drawn) [compound 338],,,"IC50 [1, 7]: > 42.7 µM; EC50 [2, 8]: 16.9 µM"
COc1ccc(C2CC(=O)C3=C(C2)Nc2ccccc2N(C(=O)c2ccccc2)C3c2ccc(C)cc2)cc1OC (stereo not drawn) [compound 170],,,"IC50 [1, 4]: > 42.7 µM; EC50 [2, 5]: 3.75 µM"
"CC1(C)CC(=O)C2=C(C1)Nc1ccccc1NC2c1cc(Cl)c(OCc2ccccc2)c(Cl)c1 (stereo not drawn) [compound 444, 11-[4-benzyloxy-3,5-dichlorophenyl]-3,3-dimethyl-2,3,4,5,10,11-hexahydro-1H-dibenzo[b,e][1,4]diazepin-1-one]",,,"IC50 [1, 7]: 33.2 µM; EC50 [2, 8]: 4.45 µM"
CN(C)c1ccc(C2Nc3ccccc3NC3=C2C(=O)CC(c2ccc(Cl)cc2)C3)cc1 (stereo not drawn) [compound 364],,,"IC50 [1, 7]: > 42.7 µM; EC50 [2, 8]: 20.8 µM"

# From patent US20090221559A1 (priority 2005, published 2009)
